Experimental data published in US20230227466A1, “SUBSTITUTED THIENOPYRIMIDINES THAT INTERACT WITH THE RAS SUPERFAMILY FOR THE TREATMENT OF CANCERS, INFLAMMATORY DISEASES, RASOPATHIES, AND FIBROTIC DISEASE” (SHY Therapeutics, LLC, priority 2020, published 2023).
Where two headings read alike, the source gives them in different places.

Tests used:
KRas G12C mutant = target: T1, KRas G12C mutant (Homo sapiens, UniProt P01116, G12C); assay: Ras GTP binding domain inhibition assay (labeled-GTP competition, cell-free)
T1 construct: made in house
Description: (§1) This is a competitive binding assay. It involves the immobilization of a protein on solid phase, interaction with a small molecule drug candidate, and then competitive binding with a labeled native GTP or GDP ligand.
(§2) In theory, the assay is suitable for use with any GTP or GDP binding protein.
(§3) The following method was developed as specific assay for the following proteins: KRas wild type, KRas Q61H mutant, KRas G12C mutant, KRas G12D mutant, Rac-1, and Rho-A.
(§4) The small GTPases proteins: KRas wild type. KRas Q61H mutant, KRas G12C mutant, KRas G12D mutants, Rac-1, and Rho-A were expressed as His-tagged proteins. In addition, the Guanosine nucleotide Exchange Factor (GEF) Sos protein (residues 556-1049) was expressed as a His-tagged protein. In cells, the guanine nucleotide exchange factor Sos protein promotes activation of Ras proteins by stimulating an exchange of GDP for GTP. The inclusion of Sos to the Ras GTP binding domain inhibition assay may be considered as an alternative representation of physiological cellular conditions for evaluating the inhibitory activity of some of the tested small molecules.
(§5) For the assay, all purified small GTPases proteins were diluted in Buffer-I or Buffer-II to a final concentration of 10-30 μg/mL. 200 μL of each diluted protein was added to a nickel-coated 96-well plate and incubated overnight at 4° C. Then the protein solution was discarded and 200 μL of Buffer-I or Buffer-II was added to each well in the presence of 1% DMSO. Compounds to be tested were added to the protein-coated wells at final concentration of 20 μM, and incubated for 3 hours at room temperature with and without 10-30 μg/mL of Sos added to the final hour of the incubation. When performing IC50 measurements a serial dilution of all tested concentrations was added. Then Cy3-GTP or Cy5-GTP was added to each well to a final concentration of 100 nM. The labeled GTP was incubated for 45 minutes at room temperature. Following GTP incubation, wells were washed 3× in Buffer-I or Buffer-II and 200 μL of Buffer-I or Buffer-II was added to each well. Following washes, the amount of bound labeled-GTP was measured using a SpectraMax M3 (Molecular Devices).

KRas G12D mutant = target: T2, KRas G12D mutant (Homo sapiens, UniProt P01116, G12D); assay: as above
T2 construct: made in house
Description: as §1, §2, §3, §4, §5

KRas Q61H mutant = target: T3, KRas Q61H mutant (Homo sapiens, UniProt P01116, Q61H); assay: as above
T3 construct: made in house
Description: as §1, §2, §3, §4, §5

[1] = tested on: ERK1/2 phosphorylation in Panc-1 cells; assay: Western ERK1/2 cell-based phosphorylation assay; design: species or system human; conditions: at 10 μM, values in brackets < > are activation %, not inhibition
Protocol: Cell lines: Human tumor-derived pancreatic cancer cell line Panc-1 was purchased from American Type Culture Collection and grown in complete DMEM-High Glucose, supplemented with penicillin (100 U/mL), streptomycin (100 μg/mL), and 10% heat-inactivated FBS at 37° C. in a humidified incubator with 5% CO2.
Method: Cells were plated at 350000 cells/well density in a 12-well plate, allowed 3 hours to adhere to the plate, then starved in the appropriate medium in the presence of 0.5% FBS overnight. The small molecules to be tested were added to the cells in the final concentration of 10 μM in the presence of 0.3% DMSO for 6 hours incubation at 37° C. For IC50 value determination, serial dilutions of compounds were added to cells under the same conditions. Next, cells were stimulated with 1.5 ng/ml EGF for 15 minutes then cells were lysed with lysis buffer containing 1% Triton X-100, EDTA, and Halt™ Protease & Phosphatase Inhibitor Cocktail (Thermo Scientific). Protein concentration was assessed by BCA protein assay (Thermo Scientific). Phosphorylation level of ERK1/2 was determined by western blot.
Western blot protocol: Equal amounts of protein (15-50 μg) were separated by SDS-PAGE and transferred to nitrocellulose membranes (Invitrogen by Thermo Fisher Scientific). The membrane was stained with Ponceau S Stain (Boston BioProducts) to verify uniform protein loading. Membranes were blocked with 10% milk and phosphorylation levels of ERK1/2 were assessed by incubating overnight at 4° C. with anti-phospho-p44/42 (Thr202/Tyr204) antibody (Cell Signaling) followed by HRP-conjugated secondary antibody (Jackson Immunoresearch, West Grove, Pa.). Bands were incubated in Amersham ECL Prime Western Blotting Detection Reagent (GE Healthcare) and visualized using the ChemiDoc MP imaging system (Bio-Rad). Protocol for Western AKT cell-based phosphorylation assay

KRas wild type = KRas wild type (Homo sapiens, UniProt P01116); assay: Ras GTP binding domain inhibition assay (labeled-GTP competition, cell-free); design: made in house
Description: as §1, §2, §3, §4, §5

Rac-1 = Rac-1 (Homo sapiens, UniProt P63000); assay: as above; design: made in house
Description: as §1, §2, §3, §4, §5

Rho-A = Rho-A (Homo sapiens, UniProt P61586); assay: as above; design: made in house
Description: as §1, §2, §3, §4, §5

[2] = with SOS, read-out: KRas G12C mutant + SOS: % inh.
[3] = without SOS, read-out: KRas G12C mutant: % inh.
[4] = with SOS, read-out: KRas G12D mutant + SOS: % inh.
[5] = without SOS, read-out: KRas G12D mutant: % inh.
[6] = with SOS, read-out: KRas Q61H mutant + SOS: % inh.
[7] = without SOS, read-out: KRas Q61H mutant: % inh.
[8] = with SOS, read-out: KRas wild type + SOS: % inh.
[9] = without SOS, read-out: KRas wild type: % inh.
[10] = with SOS, read-out: Rac-1 + SOS: % inh.
[11] = without SOS, read-out: Rac-1: % inh.
[12] = with SOS, read-out: Rho-A + SOS: % inh.
[13] = without SOS, read-out: Rho-A: % inh.

Row | Structure (SMILES) | inhibition at 20 µM (KRas G12C mutant; [2]) | inhibition at 20 µM (KRas G12C mutant; [3]) | inhibition at 20 µM (KRas G12D mutant; [4]) | inhibition at 20 µM (KRas G12D mutant; [5]) | inhibition at 20 µM (KRas Q61H mutant; [6]) | inhibition at 20 µM (KRas Q61H mutant; [7]) | IC50 (KRas Q61H mutant; with SOS) | % inh of ERK1/2 phosphorylation in PANC-1 [1] | inhibition at 20 µM (KRas wild type; [8]) | inhibition at 20 µM (KRas wild type; [9]) | inhibition at 20 µM (Rac-1; [10]) | inhibition at 20 µM (Rac-1; [11]) | inhibition at 20 µM (Rho-A; [12]) | inhibition at 20 µM (Rho-A; [13])
1 | CO[C@@H]1CC[C@H](Nc2nc(-c3nccn3C)nc3sc(-c4ccn(C(C)C)n4)c(-c4ccccc4)c23)C1 [Example 4, 6-(1-isopropyl-1H-pyrazol-3-yl)-N-((1S,3R)-3-methoxycyclopentyl)-2-(1-methyl-1H-imidazol-2-yl)-5-phenylthieno[2,3-d]pyrimidin-4-amine] | 76 to 100% | 51 to 75% | 51 to 75% | 51 to 75% | 76 to 100% | 51 to 75% | 1 to 4.99 µM | D (76-100% inhibition) | 76 to 100% | 51 to 75% | 26 to 50% | 1 to 25% | 26 to 50% | 26 to 50%
2 | CO[C@H]1C[C@@H](Nc2nc(-c3nccn3C)nc3sc(-c4ccn(C(C)C)n4)c(C)c23)C1 [Compound 96, 6-(1-isopropyl-1H-pyrazol-3-yl)-N-((1s,3s)-3-methoxycyclobutyl)-5-methyl-2-(1-methyl-1H-imidazol-2-yl)thieno[2,3-d]pyrimidin-4-amine] | 0% | 0% | 1 to 25% | 0% | 0% | 0% | > 10 µM | B (26-50% inhibition) | 1 to 25% | 0% | 1 to 25% | 1 to 25% | 0% | 0%
3 | COCCNC(=O)c1nc(O)c2scc(-c3ccccn3)c2n1 [Compound 21, 4-Hydroxy-N-(2-methoxyethyl)-7-(pyridin-2-yl)thieno[3,2-d]pyrimidine-2-carboxamide] | 26 to 50% | 26 to 50% | 26 to 50% | 26 to 50% | 26 to 50% | 26 to 50% | > 10 µM | 0 (0% inhibition) | 1 to 25% | 26 to 50% | 26 to 50% | 26 to 50% | 26 to 50% | 51 to 75%
4 | COC1CCCN(c2nc(-c3nccn3C)nc3sc(-c4ccn(C(C)C)n4)c(-c4ccccc4)c23)C1 (racemic) [Compound 77, Rac-6-(1-isopropyl-1H-pyrazol-3-yl)-4-(3-methoxypiperidin-1-yl)-2-(1-methyl-1H-imidazol-2-yl)-5-phenylthieno[2,3-d]pyrimidine] | 0% | 26 to 50% | 26 to 50% | 51 to 75% | 26 to 50% | 1 to 25% |  | B (26-50% inhibition) | 26 to 50% | 26 to 50% |  | 1 to 25% |  | 26 to 50%
5 | Cc1c(-c2ccn(C(C)C)n2)sc2nc(-c3nccn3C)nc(N3CCC(COC(C)C)C3)c12 (racemic) [Compound 62, rac-4-(3-(Isopropoxymethyl)pyrrolidin-1-yl)-6-(1-isopropyl-1H-pyrazol-3-yl)-5-methyl-2-(1-methyl-1H-imidazol-2-yl)thieno[2,3-d]pyrimidine] | 51 to 75% |  | 51 to 75% | 26 to 50% | 51 to 75% | 76 to 100% |  | D (76-100% inhibition) | 51 to 75% | 51 to 75% |  | 1 to 25% |  | 76 to 100%
6 | CO[C@@H]1CC[C@H](Nc2nc(-c3nccn3C)nc3sc(-c4ccn(C(C)C)n4)c(C)c23)C1 [Compound 31, 6-(1-Isopropyl-1H-pyrazol-3-yl)-N-((1S,3R)-3-methoxycyclopentyl)-5-methyl-2-(1-methyl-1H-imidazol-2-yl)thieno[2,3-d]pyrimidin-4-amine] | 76 to 100% | 51 to 75% | 76 to 100% | 26 to 50% | 76 to 100% | 26 to 50% | 1 to 4.99 µM | D (76-100% inhibition) | 76 to 100% | 26 to 50% | 26 to 50% |  | 51 to 75% | 51 to 75%
7 | COCC1CCN(c2nc(-c3nccn3C)nc3sc(-c4ccn(C(C)C)n4)c(-c4ccccc4)c23)C1 (racemic) [Compound 76, Rac-6-(1-isopropyl-1H-pyrazol-3-yl)-4-(3-(methoxymethyl)pyrrolidin-1-yl)-2-(1-methyl-1H-imidazol-2-yl)-5-phenylthieno[2,3-d]pyrimidine] | 0% | 1 to 25% | 26 to 50% | 51 to 75% | 51 to 75% | 26 to 50% |  | D (76-100% inhibition) | 51 to 75% | 51 to 75% |  | 1 to 25% |  | 26 to 50%
